Where two headings read alike, the source gives them in different places.
How the values were obtained:
[1] = test system: pruritus induced by interleukin-31 (IL-31); conditions: recent study; cited from earlier work
[2] = test system: histamine-induced pruritus; assay: Antipruritic activity, histamine-induced pruritus in mice; type: in vivo, CD-1 mice; conditions: for Inhibition of histamine-induced pruritus (bouts of scratches): oral dosing 60 min before intradermal histamine 300 nmol, references 20 mg/kg, norketotifen escalating doses
Experimental: Antipruritic effects were tested in vivo in CD-1 mice, females, 10-12 weeks, according to methods known in the art. The hair was clipped over the rostral part of the back at the interscapular level of the mice one day before the dosing. Before the testing, the mice were placed in individual clear plastic cages for at least one hour for acclimation. After fasting for 1.5 hours, the animals were dosed orally with the test article, dissolved in a vehicle consisting of 1% methylcellulose/water, 10 mL/kg body weight. Sixty minutes after the oral dosing, an intradermal injection of histamine (300 nmol in 20 μl phosphate buffered saline (PBS), pH 7.4) was administered. Immediately after the histamine injection, the bouts of scratches were counted for 40 min. Scratching induced by the histamine vehicle PBS served as control.
Norketotifen was tested in escalating doses and in a supramaximal dose of 100 mg/kg.

[3] = test system: human granulocytes (leukocytes; buffy coat); assay: Inhibition of histamine release from human granulocytes (A23187-induced); type: cell-based; conditions: for IC50: Homo sapiens, Leukocyte, 20 min, histamine release induced by A23187 5 μM, 20 min/37° C., read-out: Inhibition of mediator release IC50
Experimental: Histamine is excessively released from granulocytes in patients with pruritic diseases. The inhibition of histamine release from human granulocytes (leukocytes; buffy coat) by test articles was studied. Leukocytes were obtained from blood from healthy human volunteers and release of histamine was induced by incubation (20 min/37° C.) of the buffy coats with the calcium ionophore A23187 (5 μM) in the presence or absence of a test article. Histamine was analyzed by enzyme-immune assays, using commercially available kits and a microplate reader (MRX, Dynatech). The test articles were evaluated, in duplicate, at five concentrations.

[4] = Repeat-dose pharmacological and toxicological studies in dogs (sedation, tolerability); type: in vivo; conditions: daily doses up to 20 mg/kg/day
Excerpt: Dogs vomit spontaneously for a variety of benign reasons—to expel unwanted content from their stomach, as a result of gastric irritation or in response to colonic irritation. In recent toxicological studies in dogs of various drugs, including isomeric norketotifen, vomiting occurred in both control groups and drug groups and may have been treatment-related, rather than drug-related. The unexpectedly low systemic toxicity of norketotifen and the isomers thereof is believed to be due to low systemic (plasma) concentrations, caused by the fact that norketotifen and the isomers thereof are not circulating in plasma but are accumulating in the skin, which is the largest organ in the body.

[5] = biological target: human histamine H-1 Receptor (Homo sapiens (Human), UniProt P35367); assay: Binding to histamine H-1 receptors; conditions: read-out: Human H-1 receptors IC50, heading: Human H-1 receptors IC50
Sequence of human histamine H-1 Receptor (P35367 whole entry): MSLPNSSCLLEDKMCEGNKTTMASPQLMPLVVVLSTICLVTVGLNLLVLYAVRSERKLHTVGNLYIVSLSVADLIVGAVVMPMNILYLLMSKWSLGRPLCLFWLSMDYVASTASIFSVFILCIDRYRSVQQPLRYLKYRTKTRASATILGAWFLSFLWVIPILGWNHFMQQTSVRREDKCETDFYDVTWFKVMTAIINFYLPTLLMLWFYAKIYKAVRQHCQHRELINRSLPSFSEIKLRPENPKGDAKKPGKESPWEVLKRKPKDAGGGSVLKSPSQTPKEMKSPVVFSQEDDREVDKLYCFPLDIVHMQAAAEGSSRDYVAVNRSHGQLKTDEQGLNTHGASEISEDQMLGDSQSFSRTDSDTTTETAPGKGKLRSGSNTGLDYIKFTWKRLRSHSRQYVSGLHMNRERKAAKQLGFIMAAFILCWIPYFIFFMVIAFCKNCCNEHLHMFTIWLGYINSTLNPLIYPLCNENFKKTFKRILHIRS
Experimental: (§1) Affinities of the test compounds for peripheral human histamine H-1-receptors were assessed using receptor-binding assays. The specific binding of the radioactive ligand to the receptor was defined as the difference between total binding and nonspecific binding, determined in the presence of excess unlabeled ligand. Ki-values were determined according to the Cheng-Prusoff equation.

[6] = Sedation in human subjects; type: in vivo; conditions: doses of 5 mg and 10 mg
[7] = Dermal drug accumulation after oral administration (plasma and skin PK); type: in vivo, beagle dogs; conditions: Day 28, oral 8.0 mg/kg/day hydrogen fumarate salt, dogs
Experimental: Five male beagle dogs, weighing 11.2-13.9 kg (2-4 years old) were used in the study. All animals were administered gelatin capsules containing oral doses of the test article 8.0 mg/kg/day as a hydrogen fumarate salt, equal to 5.6 mg/kg/day of the free base. The animals were dosed once daily for four consecutive weeks followed by daily observations for an additional two-week washout period.
Multiple plasma samples and skin biopsies were taken from each dog on Day 1 and Day 28 of drug administration. The plasma and skin samplings were performed at pre-dose, and at 2, 6, 12 and 24 hours post-dose. Plasma and skin samples were also taken intermittently at predetermined intervals during the 28-days dosing period and up to the last day of the study, which was Day 42. Blood samples were taken from v. Cephalica antebrachii. Skin biopsies were taken from the area between the mid ventral to lateral abdominal areas, using a 6 mm (diameter) skin biopsy device (Acu-Punch®, Acuderm® Inc., Fort Lauderdale, Fla. 33309). Multiple plasma and biopsy samples were obtained from each of 4 or 5 dogs. Subcutaneous fat deposits were carefully trimmed from the skin samples and the skin samples were weighed. All plasma and skin samples were kept
The plasma samples and skin biopsy samples were analyzed using LC/MS/MS methodology. All pharmacokinetic analyses were performed using Pharsight WinNonlin® Professional v5.2.1 software.

[8] = biological target: human histamine H-4 Receptor (Homo sapiens (Human), UniProt Q9H3N8); assay: Binding to histamine H-4 receptors ([3H]-histamine ligand); conditions: Cheng-Prusoff, read-out: Human H-4 receptor affinity (Ki)
Sequence of human histamine H-4 Receptor (Q9H3N8 whole entry): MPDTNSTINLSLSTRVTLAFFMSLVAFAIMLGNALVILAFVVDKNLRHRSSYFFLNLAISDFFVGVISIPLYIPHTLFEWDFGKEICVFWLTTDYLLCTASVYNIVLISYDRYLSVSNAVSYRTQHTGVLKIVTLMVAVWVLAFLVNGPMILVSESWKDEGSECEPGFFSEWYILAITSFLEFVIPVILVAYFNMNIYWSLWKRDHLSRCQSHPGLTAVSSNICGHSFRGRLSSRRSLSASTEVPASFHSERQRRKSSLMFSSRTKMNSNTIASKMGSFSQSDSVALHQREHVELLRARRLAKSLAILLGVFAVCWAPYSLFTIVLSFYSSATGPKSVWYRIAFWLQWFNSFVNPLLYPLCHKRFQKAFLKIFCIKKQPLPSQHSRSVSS
Experimental: as §1, with “H-4-receptors” for “H-1-receptors”, “[^3H]-histamine was used as the ligand in this study and the affinity values” for “Ki-values”

[9] = test system: histamine-induced pruritus; conditions: intradermal histamine, humans and mice; general statement; cited from earlier work

SMILES	Inhibition of histamine-induced pruritus (bouts of scratches) [2]	IC50 [3] [nM]	IC50 [5] [nM]	MRT Plasma [7] [h]	t1/2 Plasma [7] [h]	MRT Skin [7] [h]	t1/2 Skin [7] [h]	Ki [8] [nM]	also measured
CN1CCN(C(=O)c2cc3cc(Cl)ccc3[nH]2)CC1 [JNJ7777120, reference compound]	potently inhibited	–	–	–	–	–	–	–	Inhibition of IL-31-induced pruritus [1]: failed to inhibit
CN1CCC(=C2c3ccccc3CC(=O)c3sccc32)CC1 [Ketotifen, ketotifen, reference compound]	–	91000	–	–	–	–	–	–	–
O=C1Cc2ccccc2C(=C2CCNCC2)c2ccsc21 [Norketotifen, norketotifen]	dose-dependently inhibiting	9200	–	–	–	–	–	–	Potency relative to ketotifen as inhibitor of histamine release ([3]; human inflammatory cells): approximately 10 times; Sedation or other adverse events, chronic dosing [4]: without causing sedation or other adverse events; IC50 ([5]; listed as RS-NORKETOTIFEN): 11 nM; Sedation [6]: do not produce sedation; Inhibition of histamine-induced pruritus at supramaximal dose ([2]; norketotifen 100 mg/kg oral): complete inhibition; Inhibition of histamine-induced pruritus (bouts of scratches) ([2]; listed as norketotifen): potently inhibited
O=C(O)/C=C/C(=O)O.O=C1Cc2ccccc2C(=C2CCNCC2)c2ccsc21 [R-NORKETOTIFEN, R-norketotifen]	–	–	17	14.1	7.7	159.1	157.0	2300	–
O=C1Cc2ccccc2C(=C2CCNCC2)c2ccsc21 [S-NORKETOTIFEN, S-norketotifen]	–	–	23	11.3	10.9	159.0	162.7	1100	–
CC(C)(C(=O)O)c1ccc(C(O)CCCN2CCC(C(O)(c3ccccc3)c3ccccc3)CC2)cc1 (stereo not drawn) [fexofenadine]	–	–	–	–	–	–	–	–	Inhibition of pruritus following histamine injections by H-1 inhibitors [9]: not inhibited
